Results published in ChEMBL document CHEMBL1201862, “PubChem BioAssay data set” (2004).
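Five concentrations, 48 hours, 96-well plates. GI50 is the concentration that inhibits growth by half.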 The source made the active and inactive calls. Rule as the data show it: active = GI50 up to about 1.1 µM and inactive = higher.

Tests used:
Assay in all cases: NCI tumour cell line growth inhibition, 48 h
[1] = system: OVCAR-4
[2] = system: RPMI-8226
[3] = system: HT-29
[4] = system: U-251
[5] = system: KM12
[6] = system: MOLT-4
[7] = system: SK-MEL-2
[8] = system: SK-OV-3
[9] = system: K562
[10] = system: CCRF-CEM
[11] = system: SN12C
[12] = system: NCI-H522
[13] = system: LOX IMVI
[14] = system: HCT-15
[15] = system: OVCAR-5
[16] = system: SNB-75
[17] = system: Malme-3M

| SMILES | GI50 [1] | GI50 [2] | GI50 [3] | GI50 [4] | GI50 [5] | GI50 [6] | GI50 [7] | GI50 [8] | GI50 [9] | GI50 [10] | GI50 [11] | GI50 [12] | GI50 [13] | GI50 [14] [µM] | GI50 [15] | GI50 [16] | GI50 [17] |
| --- | --- | --- | --- | --- | --- | --- | --- | --- | --- | --- | --- | --- | --- | --- | --- | --- | --- |
| CNc1ccc(/C=C2\C=Cc3ccccc32)cc1 | 26.8 µM (inactive) | 54.3 µM (inactive) | 18.7 µM (inactive) | 32.4 µM (inactive) | 12.7 µM (inactive) | 41.9 µM (inactive) | 18.8 µM (inactive) | 26.5 µM (inactive) | 32 µM (inactive) | 43.4 µM (inactive) | 29.9 µM (inactive) | 10.8 µM (inactive) | 11.5 µM (inactive) | 20.9 | 18.8 µM (inactive) |  |  |
| CN(C)C(=S)/N=c1\ss/c(=N\C(=S)N(C)C)n1-c1ccc(Cl)cc1 | > 10 µM (inactive) | > 100 µM (inactive) | > 100 µM (inactive) | > 100 µM (inactive) | > 100 µM (inactive) | > 100 µM (inactive) | > 100 µM (inactive) | > 100 µM (inactive) | > 100 µM (inactive) | > 100 µM (inactive) | > 100 µM (inactive) | 87.9 µM (inactive) | > 100 µM (inactive) | > 100 | > 100 µM (inactive) | 3.33 µM (inactive) |  |
| Cc1ccccc1NC(=O)C(=O)C(C#N)c1ccccc1C (centres undefined) |  | > 100 µM (inactive) | > 100 µM (inactive) | > 100 µM (inactive) | > 100 µM (inactive) | > 100 µM (inactive) | > 100 µM (inactive) | > 100 µM (inactive) | 21.9 µM (inactive) | 30.4 µM (inactive) | > 100 µM (inactive) | 59.3 µM (inactive) | 22.5 µM (inactive) | > 100 | > 100 µM (inactive) | > 100 µM (inactive) | > 100 µM (inactive) |
| COC(=O)N/N=C(\c1nc2ccc(Cl)cc2nc1O)C(O)c1ccc([N+](=O)[O-])cc1 (centres undefined) | > 100 µM (inactive) | > 100 µM (inactive) | > 100 µM (inactive) | > 100 µM (inactive) | > 100 µM (inactive) | 98.4 µM (inactive) |  | > 100 µM (inactive) | > 100 µM (inactive) | 89.7 µM (inactive) | > 100 µM (inactive) | > 100 µM (inactive) | > 100 µM (inactive) | > 100 | > 100 µM (inactive) | > 100 µM (inactive) | > 100 µM (inactive) |
| COC(=O)/C(C=O)=C/Sc1ccccc1 | 45 µM (inactive) | 65.5 µM (inactive) | 25.5 µM (inactive) | 17.1 µM (inactive) | 24.1 µM (inactive) | > 100 µM (inactive) | 30.9 µM (inactive) | 42.9 µM (inactive) | 50.7 µM (inactive) | 57.5 µM (inactive) | 19.7 µM (inactive) | 11.7 µM (inactive) | 8.65 µM (inactive) | 22.6 | 37.6 µM (inactive) | 18.5 µM (inactive) |  |
| O=S1(=O)OCCOS(=O)(=O)C1(Br)Br | > 100 µM (inactive) | > 100 µM (inactive) | > 100 µM (inactive) |  | > 100 µM (inactive) | > 100 µM (inactive) | > 100 µM (inactive) | > 100 µM (inactive) | > 100 µM (inactive) | > 100 µM (inactive) | > 100 µM (inactive) | > 100 µM (inactive) |  |  |  | > 100 µM (inactive) | > 100 µM (inactive) |
| Cc1c2c(cc3c(=O)ccn(CCN(C)C)c13)c(=O)ccn2CCN(C)C | 4.4 µM (inactive) |  |  | 8.34 µM (inactive) | 3.08 µM (inactive) | 3.96 µM (inactive) | 21 µM (inactive) | 8.61 µM (inactive) | 17.8 µM (inactive) | 5.87 µM (inactive) | 11.2 µM (inactive) | 2.31 µM (inactive) | 10.3 µM (inactive) | 4.5 | 13.5 µM (inactive) | 11.9 µM (inactive) | 27.4 µM (inactive) |
| FC(F)(F)C1(Br)C(c2ccccc2)=C1c1ccccc1 | 18.8 µM (inactive) | 19.3 µM (inactive) | 17.9 µM (inactive) | 15.6 µM (inactive) | 15.8 µM (inactive) | 2.7 µM (inactive) | 15.9 µM (inactive) | 45.2 µM (inactive) | 7.14 µM (inactive) | 4.43 µM (inactive) | 14 µM (inactive) |  | 12.9 µM (inactive) | 12.3 | 20.9 µM (inactive) | 29.1 µM (inactive) | 15.8 µM (inactive) |
| O=S1OC2(c3ccccc3-c3ccccc32)c2ccccc21 (centres undefined) | > 100 µM (inactive) | > 100 µM (inactive) | > 100 µM (inactive) | > 100 µM (inactive) | > 100 µM (inactive) | 52.4 µM (inactive) |  | > 100 µM (inactive) | > 100 µM (inactive) | 72.8 µM (inactive) | > 100 µM (inactive) | > 100 µM (inactive) | > 100 µM (inactive) | 86.3 | > 100 µM (inactive) | > 100 µM (inactive) | > 100 µM (inactive) |
| O=C1C2=C(c3ccccc31)C(c1ccccc1Cl)NC(S)=N2 (centres undefined) | 35.6 µM (inactive) | 37.4 µM (inactive) | 51.9 µM (inactive) | 77.6 µM (inactive) | 44.5 µM (inactive) | 31.8 µM (inactive) | 29.1 µM (inactive) | > 100 µM (inactive) | 49.2 µM (inactive) | 48.2 µM (inactive) | 41.3 µM (inactive) | 31.8 µM (inactive) |  | 59.2 | > 100 µM (inactive) | 26.9 µM (inactive) | 39 µM (inactive) |
| CCOC(=O)C(=O)Nc1c(CC)cccc1C(C)C | > 100 µM (inactive) | > 100 µM (inactive) | > 100 µM (inactive) | > 100 µM (inactive) | > 100 µM (inactive) |  | > 100 µM (inactive) | > 100 µM (inactive) |  |  | > 100 µM (inactive) |  | > 100 µM (inactive) | > 100 | > 100 µM (inactive) | > 100 µM (inactive) | > 100 µM (inactive) |
| Clc1ccc2cccc3c2c1C1OC3c2ccccc21 (centres undefined) |  | > 100 µM (inactive) | 36.6 µM (inactive) | > 100 µM (inactive) | 71.4 µM (inactive) | > 100 µM (inactive) | > 100 µM (inactive) | > 100 µM (inactive) | 66.7 µM (inactive) | > 100 µM (inactive) | > 100 µM (inactive) | > 100 µM (inactive) | > 100 µM (inactive) |  | > 100 µM (inactive) | 99.8 µM (inactive) | 34.4 µM (inactive) |
| N#Cc1c(N)c(C(=O)O)nn(-c2cccc(C(F)(F)F)c2)c1=O |  | 88.9 µM (inactive) | > 100 µM (inactive) | > 100 µM (inactive) | > 100 µM (inactive) | > 100 µM (inactive) | > 100 µM (inactive) | > 100 µM (inactive) | 64.7 µM (inactive) | > 100 µM (inactive) | > 100 µM (inactive) | 39 µM (inactive) | > 100 µM (inactive) | 95.1 | > 100 µM (inactive) | 14 µM (inactive) | 60 µM (inactive) |
